ChEMBL document CHEMBL1121922, “Synthesis and pharmacological evaluation of a series of analogues of 1-methylisoguanosine” (1981)
Active and inactive are the calls of the source. No cut-off for these calls is given here.

Legend:
Rattus norvegicus [1] = assay: Cardiovascular response in conscious hypertensive rats after administration of compound expressed as percent reduction in heart rate; NA= No activity; assay type: functional, organism-based
Mus musculus [2] = species: Mus musculus; assay: Effective peroral dose for muscle relaxation in mice; assay type: functional; details: po
Mus musculus [3] = species: Mus musculus; assay: Effective peroral dose hypothermic activity in mice; assay type: functional; details: po
Rattus norvegicus [4] = assay: Antiinflammatory activity of compound (100 mg/kg) was assessed by inhibition of carrageenan-induced edema in rats; NA= No activity; assay type: functional, organism-based
Rattus norvegicus [5] = assay: Cardiovascular response in conscious hypertensive rats after administration of compound expressed as percent reduction in blood pressure; NA= No activity; assay type: functional, organism-based
Rattus norvegicus [6] = assay: Antiallergic activity of compound (10mg/Kg, iv) was assessed by the inhibition of passive paw anaphylaxis in rats; NA= No activity; assay type: functional, organism-based
Rattus norvegicus [7] = assay: Antiinflammatory activity of compound (25 mg/kg) was assessed by inhibition of carrageenan-induced edema in rats; assay type: functional
Rattus norvegicus [8] = assay: Antiallergic activity of compound (10 mg/kg, iv) was assessed by the inhibition of passive paw anaphylaxis in rats; assay type: functional
Mus musculus [9] = species: Mus musculus; assay: Effective peroral dose for muscle relaxation in mice; 9.9-39.2; assay type: functional; details: po
Rattus norvegicus [10] = assay: Cardiovascular response in conscious hypertensive rats after administration of compound expressed as percent reduction in heart rate; assay type: functional
Rattus norvegicus [11] = assay: Cardiovascular response in conscious hypertensive rats after administration of compound expressed as percent reduction in blood pressure; assay type: functional
Mus musculus [12] = species: Mus musculus; assay: Effective peroral dose hypothermic activity in mice; 2.2-71.9; assay type: functional; details: po
Rattus norvegicus [13] = assay: Antiinflammatory activity of 100mg/Kg, po compound was assessed by inhibition of carrageenan-induced edema in rats; NA= No activity; assay type: functional, organism-based
Rattus norvegicus [14] = assay: Antiallergic activity of 10 mg/kg intravenous dose of compound was assessed by the inhibition of passive paw anaphylaxis in rats; assay type: functional
Rattus norvegicus [15] = assay: Antiallergic activity of 10 mg/kg intravenous dose of compound was assessed by the inhibition of passive paw anaphylaxis in rats; NA= No activity; assay type: functional, organism-based; set-up: dose 10 mg/kg; details: at 10 mg/kg
Mus musculus [16] = species: Mus musculus; assay: Effective peroral dose for muscle relaxation in mice; 7.7-16.3; assay type: functional; details: po
Rattus norvegicus [17] = assay: Antiinflammatory activity of compound (25 mg/kg) was assessed by inhibition of carrageenan-induced edema in rats
Mus musculus [18] = species: Mus musculus; assay: Effective peroral dose hypothermic activity in mice; 6.3-18.7; assay type: functional; details: po
Mus musculus [19] = species: Mus musculus; assay: Effective peroral dose for muscle relaxation in mice; 24.7-35.2; assay type: functional; details: po
Mus musculus [20] = species: Mus musculus; assay: Effective peroral dose hypothermic activity in mice; 16.6-26.9; assay type: functional; details: po
Rattus norvegicus [21] = assay: Antiinflammatory activity of 25mg/Kg, po compound was assessed by inhibition of carrageenan-induced edema in rats; NA= No activity; assay type: functional, organism-based
Rattus norvegicus [22] = assay: Antiallergic activity of compound (10 mg/kg, iv) was assessed by the inhibition of passive paw anaphylaxis in rats; NA= No activity; assay type: functional, organism-based
Rattus norvegicus [23] = assay: Antiinflammatory activity of 50mg/Kg, po compound was assessed by inhibition of carrageenan-induced edema in rats; no activity; assay type: functional
Rattus norvegicus [24] = assay: Antiinflammatory activity of compound (50 mg/kg) was assessed by inhibition of carrageenan-induced edema in rats; assay type: functional
Mus musculus [25] = species: Mus musculus; assay: Effective peroral dose hypothermic activity in mice; 7.5-20.7; assay type: functional; details: po
Mus musculus [26] = species: Mus musculus; assay: Effective peroral dose for muscle relaxation in mice; 8.6-27.1; assay type: functional; details: po
Rattus norvegicus [27] = assay: Antiinflammatory activity of compound (20 mg/kg) was assessed by inhibition of carrageenan-induced edema in rats; assay type: functional

| Structure (SMILES) | HR (Rattus norvegicus [1]) | ED50 (Mus musculus [2]) [mg/kg] | ED50 (Mus musculus [3]) [mg/kg] | BP (Rattus norvegicus [5]) | Inhibition (Rattus norvegicus [8]) [%] | HR (Rattus norvegicus [10]) [%] | BP (Rattus norvegicus [11]) [%] | inhibition (Rattus norvegicus [13]) | other results |
| --- | --- | --- | --- | --- | --- | --- | --- | --- | --- |
| Cn1c(=O)[nH]c2c(ncn2C2O[C@H](CO)[C@@H](O)[C@@H]2O)c1=N (some centres not stated) | inactive | > 100 | > 100 | Not significant | – | – | – | – | inhibition (Rattus norvegicus [4]): inactive; inhibition (Rattus norvegicus [6]): inactive |
| Cn1c(=O)[nH]c2c(ncn2C2O[C@H](COP(=O)(O)O)[C@@H](O)[C@H]2O)c1=N (some centres not stated) | – | – | – | – | 57 | -48 | -44 | – | Inhibition (Rattus norvegicus [7]): 46%; ED50 (Mus musculus [9]): 19.7 mg/kg; ED50 (Mus musculus [12]): 12.6 mg/kg |
| N=c1c2ncn(C3O[C@H](CO)[C@@H](O)[C@H]3O)c2[nH]c(=O)n1-c1ccccc1 (some centres not stated) | inactive | > 100 | > 100 | Not significant | – | – | – | inactive | inhibition in vivo at 10 mg/kg (Rattus norvegicus [14]): 30% |
| Nc1nc(=O)[nH]c2c1ncn2[C@@H]1O[C@H](CO)[C@@H](O)[C@H]1O [ISOGUANOSINE] | – | > 100 | > 100 | – | – | – | – | inactive | – |
| Cn1c(N)c2nc([C@@H]3O[C@H](CO)[C@@H](O)[C@H]3O)nc-2[nH]c1=O | inactive | > 100 | > 100 | – | – | – | -9 | inactive | inhibition (Rattus norvegicus [15]): inactive |
| C[C@H]1OC(n2cnc3c(=N)n(C)c(=O)[nH]c32)[C@H](O)[C@@H]1O (some centres not stated) | inactive | > 100 | > 100 | Not significant | – | – | – | inactive | inhibition (Rattus norvegicus [15]): inactive |
| Cn1c(=O)[nH]c2c(nc(NN)n2C2O[C@H](CO)[C@@H](O)[C@H]2O)c1=N (some centres not stated) | – | > 100 | > 100 | – | – | -21 | -13 | inactive | inhibition (Rattus norvegicus [15]): inactive |
| Cn1c(=O)[nH]c2c(ncn2C2O[C@H](CO)[C@@H](O)[C@H]2O)c1=N (some centres not stated) | – | – | – | – | 55 | -36 | -32 | – | ED50 (Mus musculus [16]): 11.2 mg/kg; Inhibition (Rattus norvegicus [17]): 62%; ED50 (Mus musculus [18]): 10.9 mg/kg |
| CCCCn1c(=O)[nH]c2c(ncn2C2O[C@H](CO)[C@@H](O)[C@H]2O)c1=N (some centres not stated) | – | > 100 | > 100 | – | – | -16 | -7 | inactive | inhibition in vivo at 10 mg/kg (Rattus norvegicus [14]): 35% |
| CCCCCCCCn1c(=O)[nH]c2c(ncn2C2O[C@H](CO)[C@@H](O)[C@H]2O)c1=N (some centres not stated) | inactive | > 100 | > 100 | Not significant | 14 | – | – | – | inhibition (Rattus norvegicus [4]): inactive |
| Cn1c(=O)[nH]c2c(ncn2COCCO)c1=N | inactive | > 100 | > 100 | Not significant | – | – | – | – | inhibition (Rattus norvegicus [4]): inactive; inhibition (Rattus norvegicus [6]): inactive |
| Cn1c(=O)[nH]c2c(ncn2C2O[C@@H]3COP(=O)(O)O[C@@H]3[C@@H]2O)c1=N (some centres not stated) | – | – | – | – | – | -37 | -17 | – | ED50 (Mus musculus [19]): 29.5 mg/kg; ED50 (Mus musculus [20]): 21.2 mg/kg; inhibition in vivo at 10 mg/kg (Rattus norvegicus [14]): 14%; inhibition (Rattus norvegicus [21]): inactive |
| Cn1c(=O)[nH]c2c(nc(Br)n2C2O[C@H](CO)[C@@H](O)[C@H]2O)c1=N (some centres not stated) | inactive | > 100 | > 100 | Not significant | – | – | – | – | inhibition (Rattus norvegicus [4]): inactive; inhibition (Rattus norvegicus [22]): inactive |
| Cn1c(=N)c2ncn3c2n(c1=O)C[C@H]1OC3[C@H](O)[C@@H]1O.I | inactive | > 100 | > 100 | Not significant | – | – | – | – | inhibition in vivo at 50 mg/kg (Rattus norvegicus [23]): 21%; inhibition in vivo at 10 mg/kg (Rattus norvegicus [14]): 45% |
| CCn1c(=O)[nH]c2c(ncn2C2O[C@H](CO)[C@@H](O)[C@H]2O)c1=N (some centres not stated) | – | > 100 | > 100 | – | 40 | -27 | -18 | – | Inhibition (Rattus norvegicus [24]): 17% |
| Cn1c(=O)[nH]c2c(ncn2C2O[C@H](CO)[C@@H](O)[C@H]2O)c1=O (some centres not stated) | inactive | > 100 | > 100 | Not significant | – | – | – | inactive | inhibition (Rattus norvegicus [15]): inactive |
| Cn1c(=O)[nH]c2c(nc(N)n2C2O[C@H](CO)[C@@H](O)[C@H]2O)c1=N (some centres not stated) | – | > 100 | > 100 | – | – | -20 | -10 | inactive | inhibition (Rattus norvegicus [15]): inactive |
| COc1nc(N)c2ncn([C@@H]3O[C@H](CO)[C@@H](O)[C@H]3O)c2n1 [BVT.115959] | – | – | – | – | 56 | -25 | -41 | – | Inhibition (Rattus norvegicus [24]): 57%; ED50 (Mus musculus [25]): 12.5 mg/kg; ED50 (Mus musculus [26]): 15.3 mg/kg; Inhibition (Rattus norvegicus [27]): 25% |
| Cn1c(=O)[nH]c2c(ncn2C2O[C@H](CI)[C@@H](O)[C@H]2O)c1=N (some centres not stated) | inactive | > 100 | > 100 | Not significant | 14 | – | – | – | inhibition (Rattus norvegicus [4]): inactive |
